Reference: patent publication US8431514B2, “4-cyano-3-benzoylamino-N-phenyl-benzamides for use in pest control” (Syngenta Crop Protection LLC, priority 2009, dated 2013)

How the values were obtained:
Format in all cases: in vivo
Tetranychus urticae = Tetranychus urticae (two-spotted spider mite) bean leaf disc spray test; conditions: foliar, 192 h, application rate 200 ppm, bean leaf discs, mite populations of mixed ages, egg, larval and adult mortality 8 days later, read-out: control of Tetranychus urticae
Procedure: (§1) These Examples illustrate the insecticidal and acaricidal properties of the compounds of formula (I). The tests were performed as follows:
(§2) Cotton leaf discs were placed on agar in a 24-well microtiter plate and sprayed with test solutions at an application rate of 200 ppm. After drying, the leaf discs were infested with 5 L1 larvae. The samples were checked for mortality, feeding behavior, and growth regulation 3 days after treatment (DAT). The following compound gave at least 80% control of Spodoptera littoralis: A1, A2, A3, A4, A5, A6, A7, A8, A9, A10, A11, A12, A14, A15, A16, A17, A18, A19, A20. Heliothis Virescens (Tobacco Budworm): Eggs (0-24 h old) were placed in 24-well microtiter plate on artificial diet and treated with test solutions at an application rate of 200 ppm (concentration in well 18 ppm) by pipetting. After an incubation period of 4 days, samples were checked for egg mortality, larval mortality, and growth regulation. The following compound gave at least 80% control of Heliothis virescens: A1, A2, A3, A4, A5, A6, A7, A8, A9, A10, A11, A12, A14, A15, A16, A17, A18, A19, A20. Plutella Xylostella (Diamond Back Moth): 24-well microtiter plate (MTP) with artificial diet was treated with test solutions at an application rate of 200 ppm (concentration in well 18 ppm) by pipetting. After drying, the MTP's were infested with L2 larvae (7-12 per well). After an incubation period of 6 days, samples were checked for larval mortality and growth regulation. The following compound gave at least 80% control of Plutella xylostella: A1, A2, A3, A4, A5, A6, A7, A8, A9, A10, A11, A12, A13, A14, A15, A16, A17, A18, A19, A20. Diabrotica Balteata (Corn Root Worm): A 24-well microtiter plate (MTP) with artificial diet was treated with test solutions at an application rate of 200 ppm (concentration in well 18 ppm) by pipetting. After drying, the MTP's were infested with L2 larvae (6-10 per well). After an incubation period of 5 days, samples were checked for larval mortality and growth regulation. The following compound gave at least 80% control of Diabrotica balteata: A1, A2, A3, A4, A5, A6, A7, A8, A9, A10, A11, A12, A13, A14, A16, A17, A18, A19, A20. Thrips Tabaci (Onion Thrips): Sunflower leaf discs were placed on agar in a 24-well microtiter plate and sprayed with test solutions at an application rate of 200 ppm. After drying, the leaf discs were infested with an […] population of mixed ages. After an incubation period of 7 days, samples were checked for mortality. The following compounds gave at least 80% control of Thrips tabaci: A1, A2, A3, A4, A5, A6, A7, A8, A9, A10, A14, A16, A17, A18, A19, A20. Tetranychus Urticae (Two-Spotted Spider Mite): Bean leaf discs on agar in 24-well microtiter plates were sprayed with test solutions at an application rate of 200 ppm. After drying, the leaf discs are infested with mite populations of mixed ages. 8 days later, discs are checked for egg mortality, larval mortality, and adult mortality. The following compounds gave at least 80% control of Tetranychus urticae: A1, A2, A3, A4, A5, A6, A7, A8, A9, A10, A11, A12, A13, A14, A15, A16, A17, A19, A20.

Diabrotica balteata = Diabrotica balteata (corn root worm) artificial diet test; conditions: 120 h, application rate 200 ppm (concentration in well 18 ppm), L2 larvae, larval mortality and growth regulation after 5 days
Procedure: as §1, §2

Heliothis virescens = Heliothis virescens (tobacco budworm) egg test on artificial diet; conditions: 96 h, application rate 200 ppm (concentration in well 18 ppm), eggs 0-24 h old on artificial diet, egg mortality, larval mortality and growth regulation after 4 days
Procedure: as §1, §2

Plutella xylostella = Plutella xylostella (diamond back moth) artificial diet test; conditions: 144 h, application rate 200 ppm (concentration in well 18 ppm), L2 larvae, larval mortality and growth regulation after 6 days
Procedure: as §1, §2

Spodoptera littoralis = Spodoptera littoralis (Egyptian cotton leafworm) leaf disc spray test; conditions: foliar, 72 h, application rate 200 ppm, cotton leaf discs, 5 L1 larvae, mortality, feeding behavior and growth regulation 3 days after treatment
Procedure: as §1, §2

Thrips tabaci = Thrips tabaci (onion thrips) sunflower leaf disc spray test; conditions: foliar, 168 h, application rate 200 ppm, sunflower leaf discs, population of mixed ages, mortality after 7 days
Procedure: as §1, §2

Measured: pest or weed control at 200 ppm

CCc1cc(C(F)(C(F)(F)F)C(F)(F)C(F)(F)F)cc(C)c1NC(=O)c1ccc(C#N)c(NC(=O)c2ccc(C#N)cc2C)c1 (stereo not shown) [A1, 4-cyano-3-(4′-cyano-2′-methylbenzoylamino)-N-[2-ethyl-6-methyl-4-(1,2,2,3,3,3-hexafluoro-1-trifluoromethylpropyl)phenyl]benzamide]
≥ 80%: all assays above

Cc1cc(C#N)ccc1C(=O)Nc1cc(C(=O)Nc2c(Cl)cc(C(F)(C(F)(F)F)C(F)(F)C(F)(F)F)cc2Br)ccc1C#N (stereo not shown) [A2, N-[2-bromo-6-chloro-4-(1,2,2,3,3,3-hexafluoro-1-trifluoromethylpropyl)-phenyl]-4-cyano-3-(4′-cyano-2′-methylbenzoylamino)benzamide]
≥ 80%: all assays above

Cc1cc(C#N)ccc1C(=O)Nc1cc(C(=O)Nc2c(Br)cc(C(F)(C(F)(F)F)C(F)(F)F)cc2Br)ccc1C#N [A3, 4-cyano-3-(4′-cyano-2′-methylbenzoylamino)-N-[2,6-dibromo-4-(1,2,2,2-tetrafluoro-1-trifluoromethylethyl)phenyl]benzamide]
≥ 80%: all assays above

Cc1cc(C#N)ccc1C(=O)Nc1cc(C(=O)Nc2c(Br)cc(C(F)(C(F)(F)F)C(F)(F)C(F)(F)F)cc2Br)ccc1C#N (stereo not shown) [A4, 4-cyano-3-(4′-cyano-2′-methylbenzoylamino)-N-[2,6-dibromo-4-(1,2,2,3,3,3-hexafluoro-1-trifluoromethylpropyl)phenyl]benzamide]
≥ 80%: all assays above

CCc1cc(C(F)(C(F)(F)F)C(F)(F)C(F)(F)F)cc(Br)c1NC(=O)c1ccc(C#N)c(NC(=O)c2ccc(C#N)cc2C)c1 (stereo not shown) [A5, N-[2-bromo-6-ethyl-4-(1,2,2,3,3,3-hexafluoro-1-trifluoromethylpropyl)-phenyl]-4-cyano-3-(4′-cyano-2′-methylbenzoylamino)benzamide]
≥ 80%: all assays above

Cc1cc(C#N)ccc1C(=O)Nc1c(C#N)ccc(C(=O)Nc2c(Cl)cc(C(F)(C(F)(F)F)C(F)(F)C(F)(F)F)cc2Br)c1F (stereo not shown) [A6, N-[2-bromo-6-chloro-4-(1,2,2,3,3,3-hexafluoro-1-trifluoromethylpropyl)-phenyl]-4-cyano-3-(4′-cyano-2′-methylbenzoylamino)-2-fluorobenzamide]
≥ 80%: all assays above

Cc1cc(C#N)ccc1C(=O)Nc1cc(C(=O)Nc2c(Cl)cc(C(F)(C(F)(F)F)C(F)(F)C(F)(F)F)cc2C#N)ccc1C#N (stereo not shown) [A7, N-[2-chloro-6-cyano-4-(1,2,2,3,3,3-hexafluoro-1-trifluoromethylpropyl)-phenyl]-4-cyano-3-(4′-cyano-2′-methylbenzoylamino)benzamide]
≥ 80%: all assays above

Cc1cc(C#N)ccc1C(=O)Nc1cc(C(=O)Nc2c(Cl)cc(C(F)(C(F)(F)F)C(F)(F)C(F)(F)F)cc2Cl)ccc1C#N (stereo not shown) [A8, 4-cyano-3-(4′-cyano-2′-methylbenzoylamino)-N-[2,6-dichloro-4-(1,2,2,3,3,3-hexafluoro-1-trifluoromethylpropyl)phenyl]benzamide]
≥ 80%: all assays above

COc1cc(C(F)(C(F)(F)F)C(F)(F)C(F)(F)F)cc(C)c1NC(=O)c1ccc(C#N)c(NC(=O)c2ccc(C#N)cc2C)c1 (stereo not shown) [A11, 4-cyano-3-(4′-cyano-2′-methylbenzoylamino)-N-[2-methoxy-6-methyl-4-(1,2,2,3,3,3-hexafluoro-1-trifluoromethylpropyl)phenyl]benzamide]
not listed: Thrips tabaci
≥ 80%: all other assays above

Cc1cc(C#N)ccc1C(=O)Nc1cc(C(=O)Nc2c(Cl)cc(C(OC(=O)c3ccccc3)(C(F)(F)F)C(F)(F)F)cc2Br)ccc1C#N [A12, benzoic acid 1-{3-bromo-5-chloro-4-[4-cyano-3-(4-cyano-2-methyl-benzoylamino)benzoylamino]phenyl}-2,2,2-trifluoro-1-trifluoromethylethyl ester]
not listed: Thrips tabaci
≥ 80%: all other assays above

Cc1cc(C#N)ccc1C(=O)Nc1cc(C(=O)Nc2c(Cl)cc(C(O)(C(F)(F)F)C(F)(F)F)cc2Br)ccc1C#N [A13, N-[2-bromo-6-chloro-4-[1,1,1,3,3,3-hexafluoropropan-2-ol)phenyl]-4-cyano-3-(4′-cyano-2′-methylbenzoylamino)benzamide]
≥ 80%: Tetranychus urticae | Diabrotica balteata | Plutella xylostella

CCc1cc(C(O)(C(F)(F)F)C(F)(F)C(F)(F)F)cc(C)c1NC(=O)c1ccc(C#N)c(NC(=O)c2ccc(C#N)cc2C)c1 (stereo not shown) [A15, 4-cyano-3-(4′-cyano-2′-methyl-benzoylamino)-N-[2-ethyl-6-methyl-4-(2,2,3,3,3-pentafluoro-1-hydroxy-1-trifluoromethylpropyl)phenyl]benzamide]
≥ 80%: Tetranychus urticae | Heliothis virescens | Plutella xylostella | Spodoptera littoralis

Cc1cc(C#N)ccc1C(=O)Nc1c(C#N)ccc(C(=O)Nc2c(Cl)cc(C(F)(C(F)(F)F)C(F)(F)C(F)(F)F)cc2Cl)c1F (stereo not shown) [A18, 4-cyano-3-(4′-cyano-2′-methylbenzoylamino)-N-[2,6-dichloro-4-(1,2,2,3,3,3-hexafluoro-1-trifluoromethylpropyl)phenyl]-2-fluorobenzamide]
not listed: Tetranychus urticae
≥ 80%: all other assays above
